For one test, the target named is T1, Human plasma kallikrein (Homo sapiens, UniProt P03952).
T1 construct: yields a heavy chain (371 amino acids) and a light chain (248 amino acids); purchased Enzyme Research Laboratories
The test can be described thus: Plasma Kallikrein Assay. In kind it is biochemical. The settings on record: purified Human plasma kallikrein 0.5 nM, substrate Acetyl-K-P-R-AFC; read-out: PKal IC50. In a few lines: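 Purified human plasma kallikrein (0.5 nM) hydrolysing fluorogenic Acetyl-K-P-R-AFC ([…]) in 50 mM HEPES pH 7.4, 150 mM NaCl, 5 mM CaCl2, 0.1% PEG 8000, at rt or 37 °C after enzyme–inhibitor equilibration. IC50 from four-parameter logistic fit; Ki via Cheng–Prusoff.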

For a further test, the target named is T2, human factor XIa (Homo sapiens, UniProt P03951).
T2 construct: with human (0.04 nM) factor XIa
T2 sequence (P03951 388-625 limits assumed): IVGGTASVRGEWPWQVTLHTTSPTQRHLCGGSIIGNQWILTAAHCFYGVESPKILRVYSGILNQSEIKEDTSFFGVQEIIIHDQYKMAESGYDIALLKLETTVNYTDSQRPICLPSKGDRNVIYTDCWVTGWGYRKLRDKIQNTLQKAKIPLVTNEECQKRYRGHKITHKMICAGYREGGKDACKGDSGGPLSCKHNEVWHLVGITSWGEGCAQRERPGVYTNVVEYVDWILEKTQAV
T2 sequence (P03951 19-387 partner limits assumed): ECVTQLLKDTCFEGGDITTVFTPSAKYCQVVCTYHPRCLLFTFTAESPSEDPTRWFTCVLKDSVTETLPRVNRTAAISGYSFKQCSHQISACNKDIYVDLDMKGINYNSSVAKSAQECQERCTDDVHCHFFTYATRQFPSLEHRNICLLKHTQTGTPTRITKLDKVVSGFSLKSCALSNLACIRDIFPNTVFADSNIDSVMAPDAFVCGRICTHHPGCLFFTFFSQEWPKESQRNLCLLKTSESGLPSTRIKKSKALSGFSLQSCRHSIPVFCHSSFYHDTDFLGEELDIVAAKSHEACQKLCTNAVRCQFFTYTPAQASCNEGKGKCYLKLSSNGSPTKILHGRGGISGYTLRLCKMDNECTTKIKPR
The test can be described thus: Factor XIa Assay. In kind it is biochemical. The settings on record: human factor XIa 0.04 nM, substrate GPR-AFC, 25° C. Here is the method:
The effectiveness of a compound of the present invention as an inhibitor of Coagulation factor XIa can be determined using a relevant purified serine protease, and an appropriate synthetic substrate. The rate of hydrolysis of the chromogenic or fluorogenic substrate by the relevant serine protease was measured both in the absence and presence of compounds of the present invention. Assays were conducted at rt or at 37° C. […] A decrease in the rate of fluorescence change in the presence of inhibitor is indicative of enzyme inhibition. Such methods are known to one skilled in the art. The results of this assay are expressed as the half-maximal inhibitory concentrations (IC50), or the inhibitory constant, Ki.
Compounds were pre-incubated for 30 min at 25° C. with human (0.04 nM) factor XIa in 50 mM HEPES buffer with 150 mM sodium chloride, 5 mM calcium chloride, 0.1% PEG 8000, pH 7.4. factor XIa enzymatic activity was determined by addition of the substrate glycine-proline-arginine-7-amido-4-trifluoromethylcoumarin (GPR-AFC) and measurement of the fluorescence at 400/505 nm after a 60 min incubation at 25° C. The % inhibition for each data point was calculated from the data and analyzed using the log (inhibitor) vs. response four parameters equation to determine the half-maximal inhibitory concentrations (IC50). The IC50 were converted to equilibrium inhibitory constants (Ki) using the Cheng-Prusoff equation.

The results in this text go back to patent US20250099478A1, “PLASMA KALLIKREIN INHIBITORS” (Merck Sharp & Dohme LLC, priority 2022, published 2025).

The IC50 is the concentration that inhibits the measured activity by half.

T1 sequence (P03952 391-638 limits assumed): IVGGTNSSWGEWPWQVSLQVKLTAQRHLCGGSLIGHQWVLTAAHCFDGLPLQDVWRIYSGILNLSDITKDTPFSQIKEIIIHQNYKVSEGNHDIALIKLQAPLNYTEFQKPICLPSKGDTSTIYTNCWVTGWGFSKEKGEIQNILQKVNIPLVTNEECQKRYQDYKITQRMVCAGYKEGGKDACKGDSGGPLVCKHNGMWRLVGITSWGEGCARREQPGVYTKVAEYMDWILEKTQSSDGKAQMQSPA
T1 sequence (P03952 20-390 partner limits assumed): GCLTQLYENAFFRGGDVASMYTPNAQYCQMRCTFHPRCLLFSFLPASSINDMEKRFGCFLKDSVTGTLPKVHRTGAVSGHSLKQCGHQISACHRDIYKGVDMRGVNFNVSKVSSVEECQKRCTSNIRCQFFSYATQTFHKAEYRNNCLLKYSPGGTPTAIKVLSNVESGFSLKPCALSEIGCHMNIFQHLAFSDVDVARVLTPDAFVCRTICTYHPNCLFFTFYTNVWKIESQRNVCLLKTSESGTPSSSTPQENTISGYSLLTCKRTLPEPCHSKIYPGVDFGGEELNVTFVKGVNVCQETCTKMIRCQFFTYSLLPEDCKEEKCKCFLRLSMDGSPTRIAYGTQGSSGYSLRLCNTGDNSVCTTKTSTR

`O=C1Nc2ccc(Cl)c(F)c2[C@@]2(CCCN(C(=O)c3cnn(Cc4ccnc(C(F)(F)F)c4)c3)C2)O1` [Example 7, (R)-6-Chloro-5-fluoro-1′-(1-((2-(trifluoromethyl)pyridin-4-yl)methyl)-1H-pyrazole-4-carbonyl)spiro[benzo[d][1,3]oxazine-4,3′-piperidin]-2(1H)-one]: the IC50 came out at 37.5 nM at Human plasma kallikrein and 881 nM on human factor XIa.

Regarding `C[C@H](O)[C@@H](c1ccccc1)n1cc(C(=O)N2CCC[C@@]3(C2)OC(=O)Nc2ccc(Cl)c(F)c23)cn1` [Example 9, (R)-6-Chloro-5-fluoro-1′-(1-((1R,2S)-2-hydroxy-1-phenylpropyl)-1H-pyrazole-4-carbonyl)spiro[benzo[d][1,3]oxazine-4,3′-piperidin]-2(1H)-one], the half-maximal inhibitory concentration (IC50) was determined as 29.7 nM on Human plasma kallikrein and 5590 nM against human factor XIa.

Turning to `CO[C@@H](C)[C@@H](c1ccccc1)n1cc(C(=O)N2CCC[C@@]3(C2)OC(=O)Nc2ccc(Cl)c(F)c23)cn1` [Example 11, (R)-6-Chloro-5-fluoro-1′-(1-((1R,2S)-2-methoxy-1-phenylpropyl)-1H-pyrazole-4-carbonyl)spiro[benzo[d][1,3]oxazine-4,3′-piepridine]-2(1H)-one], the 50% inhibitory concentration (IC50) came out at 20 nM at Human plasma kallikrein and 4330 nM against human factor XIa.

On to `COCC(c1ccccc1)n1cc(C(=O)N2CCC[C@@]3(C2)OC(=O)Nc2ccc(Cl)c(F)c23)cn1` (stereo partly drawn) [Example 14, (4R)-6-Chloro-5-fluoro-1′-(1-(2-methoxy-1-phenylethyl)-1H-pyrazole-4-carbonyl)spiro[benzo[d][1,3]oxazine-4,3′-piperidin]-2(1H)-one], for which the IC50 on Human plasma kallikrein turned out to be 16.2 nM; against human factor XIa, 1530 nM.

As for `CO[C@H](C)[C@H](c1ccccc1)n1cc(C(=O)N2CCC[C@@]3(C2)OC(=O)Nc2ccc(Cl)c(F)c23)cn1` [Example 15, (R)-6-Chloro-5-fluoro-1′-(1-((1S,2R)-2-methoxy-1-phenylpropyl)-1H-pyrazole-4-carbonyl)spiro[benzo[d][1,3]oxazine-4,3′-piperidin]-2(1H)-one], the figures for the 50% inhibitory concentration (IC50) at Human plasma kallikrein and against human factor XIa were 38.1 nM and 2710 nM, respectively.

Consider `C[C@@H](O)[C@H](c1ccccc1)n1cc(C(=O)N2CCC[C@@]3(C2)OC(=O)Nc2ccc(Cl)c(F)c23)cn1` [Example 16, (R)-6-Chloro-5-fluoro-1′-(1-((1S,2R)-2-hydroxy-1-phenylpropyl)-1H-pyrazole-4-carbonyl)spiro[benzo[d][1,3]oxazine-4,3′-piperidin]-2(1H)-one], for which the IC50 on Human plasma kallikrein turned out to be 40.3 nM; against human factor XIa, 1450 nM.

For `O=C1Nc2ccc(Cl)c(F)c2[C@@]2(CC(C3CC3)CN(C(=O)c3cnn(Cc4ccccc4)c3)C2)O1` (stereo partly drawn) [Example 22, (4R)-1′-(1-Benzyl-1H-pyrazole-4-carbonyl)-6-chloro-5′-cyclopropyl-5-fluorospiro[benzo[d][1,3]oxazine-4,3′-piperidin]-2(1H)-one], the IC50 at Human plasma kallikrein was found to be 7.9 nM; at human factor XIa, 1370 nM.

As to `O=C1Nc2ccc(Cl)c(F)c2[C@@]2(CCCN(C(=O)c3cnn([C@](CO)(CC4CC4)c4ccc(F)cc4)c3)C2)O1` [Example 34, (R)-6-Chloro-1′-(1-((R)-1-cyclopropyl-2-(4-fluorophenyl)-3-hydroxypropan-2-yl)-1H-pyrazole-4-carbonyl)-5-fluorospiro[benzo[d][1,3]oxazine-4,3′-piperidin]-2(1H)-one], the IC50 on Human plasma kallikrein was found to be 13.1 nM; against human factor XIa it was 270 nM.

As for `O=C1Nc2ccc(Cl)c(F)c2[C@@]2(CCCN(C(=O)c3nc(Cc4ccccc4)c[nH]3)C2)O1` [Example 65, (R)-1′-(4-Benzyl-1H-imidazole-2-carbonyl)-6-chloro-5-fluorospiro[benzo[d][1,3]oxazine-4,3′-piperidin]-2(1H)-one], the IC50 on Human plasma kallikrein is 19.3 nM; against human factor XIa, 1770 nM.

On to `CCC(c1ccc(F)cc1)c1c[nH]c(C(=O)N2CCC[C@@]3(C2)OC(=O)Nc2ccc(Cl)c(F)c23)n1` (stereo partly drawn) [Example 70, (4R)-6-Chloro-5-fluoro-1′-(4-(1-(4-fluorophenyl)propyl)-1H-imidazole-2-carbonyl)spiro[benzo[d][1,3]oxazine-4,3′-piperidin]-2(1H)-one], for which the IC50 on Human plasma kallikrein was 5.7 nM; against human factor XIa it was 946 nM.
